Consider 6 compounds from patent US8940754B2, “10′-fluorinated Vinca alkaloids provide enhanced biological activity against MDR cancer cells” (priority 2010, dated 2015).

Read-outs that look alike come from different tables or passages of the source. Where only a bound is given, the exact number is not on record here.

Series [1] deals with L1210, HCT116, HCT116/VM46. Nature of the series: cytotoxic activity in the cell-based assays, overall comparison with the parent compound. Conditions: for fold more potent than the natural products themselves: vs vinblastine / vincristine, Table 2C; for enhancement of cytotoxic activity by C-10′ fluorine substitution: vs natural product without fluorine.
For another series, the system named is HCT116. The experiment in a line: cells. It counts as cell-based, human.
In the next series the test system is L1210. Nature of the series: cells. Type of series: cell-based, mouse.
The subject of the next series is HCT116/VM46. The experiment in a line: cells. Type of series: cell-based, human.
Setting [2] is: Homo sapiens, HCT-116; Table 2B, C10′-substituted vinblastines, single evaluations; read-out: IC50 (nM) HCT116.
Where [3] appears, read: Mus musculus, L1210; Table 2B, C10′-substituted vinblastines, single evaluations; read-out: IC50 (nM) L1210.
[4] abbreviates: Homo sapiens, HCT-116/VM46; Table 2B, C10′-substituted vinblastines, single evaluations; read-out: IC50 (nM) HCT116/VM46.

Turning to `CC[C@]1(O)C[C@@H]2CN(CCc3c([nH]c4ccc(F)cc34)[C@@](C(=O)OC)(c3cc4c(cc3OC)N(C=O)C3C(O)(C(=O)OC)[C@H](OC(C)=O)[C@]5(CC)C=CCN6CC[C@]43[C@@H]65)C2)C1` (some centres unmarked) [Compound 28, 10′-fluorovincristine], in series [1], the “fold more potent than the natural products themselves” value is “about 8 fold”. Further, the IC50 with HCT116 (Homo sapiens, HCT-116; Table 2C, side-by-side, multiple examinations with several independent samples; read-out: IC50 (nM) HCT116) was found to be 1 nM; in the series with L1210 (Mus musculus, L1210; Table 2C, side-by-side, multiple examinations with several independent samples; read-out: IC50 (nM) L1210) it was 0.7 nM; in the series on HCT116/VM46 (Homo sapiens, HCT-116/VM46; Table 2C, side-by-side, multiple examinations with several independent samples; read-out: IC50 (nM) HCT116/VM46), 90 nM.

Consider `CC[C@]1(O)C[C@@H]2CN(CCc3c([nH]c4ccc(F)cc34)[C@@](C(=O)OC)(c3cc4c(cc3OC)N(C)C3C(O)(C(=O)OC)[C@H](OC(C)=O)[C@]5(CC)C=CCN6CC[C@]43[C@@H]65)C2)C1` (some centres unmarked) [Compound 19b, 10′-fluorovinblastine], for which the “enhancement of cytotoxic activity by C-10′ fluorine substitution” value in series [1] is recorded as “about 8 fold”. The “fold more potent than the natural products themselves” value in series [1] is on record as “about 8 fold”. In addition, the IC50 was 0.9 nM with HCT116 (setting [2]), 0.7 nM in the series on L1210 (setting [3]) and 80 nM with HCT116/VM46 (setting [4]). Also, in the series with HCT116/VM46 (vs vinblastine), the “increased activity against vinblastine resistant cell line (HCT116/VM46)” value was “about 8 fold”.

For the compound `CC[C@]1(O)C[C@@H]2CN(CCc3c([nH]c4ccc(SC)cc34)[C@@](C(=O)OC)(c3cc4c(cc3OC)N(C)C3C(O)(C(=O)OC)[C@H](OC(C)=O)[C@]5(CC)C=CCN6CC[C@]43[C@@H]65)C2)C1` (some centres unmarked) [Compound 20b, 10′-thiomethylvinblastine], the IC50 with HCT116 (setting [2]) was determined as 35 nM; with L1210 (setting [3]), 45 nM; with HCT116/VM46 (setting [4]) it was 740 nM.

For the compound `CCC1=C[C@@H]2CN(CCc3c([nH]c4ccc(F)cc34)[C@@](C(=O)OC)(c3cc4c(cc3OC)N(C)C3C(O)(C(=O)OC)[C@H](OC(C)=O)[C@]5(CC)C=CCN6CC[C@]43[C@@H]65)C2)C1` (some centres unmarked) [Compound 19a, 10′-fluoroanhydrovinblastine], the “enhancement of cytotoxic activity by C-10′ fluorine substitution” value in series [1] is on record as “about 8 fold”. The IC50 with HCT116 (Homo sapiens, HCT-116, read-out: IC50 (nM) HCT116) worked out at 50 nM; with L1210 (Mus musculus, L1210, read-out: IC50 (nM) L1210) it was 30 nM; in the series on HCT116/VM46 (Homo sapiens, HCT-116/VM46, read-out: IC50 (nM) HCT116/VM46) it was 290 nM.

With `CC[C@]1(O)C[C@@H]2CN(CCc3c([nH]c4ccccc34)[C@@](C(N)=O)(c3cc4c(cc3OC)N(C)C3C(O)(C(=O)OC)[C@H](OC(C)=O)[C@]5(CC)C=CCN6CC[C@]43[C@@H]65)C2)C1` (some centres unmarked) [Compound 7b], the IC50 with HCT116 (Homo sapiens, HCT-116; read-out: IC50 (nM) HCT116) was greater than 10000 nM; with L1210 (Mus musculus, L1210; read-out: IC50 (nM) L1210), greater than 10000 nM; with HCT116/VM46 (Homo sapiens, HCT-116/VM46; read-out: IC50 (nM) HCT116/VM46), greater than 10000 nM.

On to `CCC1=C[C@@H]2CN(CCc3c([nH]c4ccc(Br)cc34)[C@@](C(=O)OC)(c3cc4c(cc3OC)N(C)C3C(O)(C(=O)OC)[C@H](OC(C)=O)[C@]5(CC)C=CCN6CC[C@]43[C@@H]65)C2)C1` (some centres unmarked) [Compound 17a, 10′-bromoanhydrovinblastine], for which the IC50 in the series on HCT116 (Homo sapiens, HCT-116; Table 2A, C10′-substituted anhydrovinblastines, single evaluations; read-out: IC50 (nM) HCT116) is 70 nM; with L1210 (Mus musculus, L1210; Table 2A, C10′-substituted anhydrovinblastines, single evaluations; read-out: IC50 (nM) L1210), 65 nM; in the series on HCT116/VM46 (Homo sapiens, HCT-116/VM46; Table 2A, C10′-substituted anhydrovinblastines, single evaluations; read-out: IC50 (nM) HCT116/VM46), 860 nM.
